From paper PMC10914731, “Homo-BacPROTAC-induced degradation of ClpC1 as a strategy against drug-resistant mycobacteria” (Nature Communications, 2024)
Values after ≈ are worked out from the molar mass of the structure shown. Values joined by “and” are separate entries in the source; they are usually repeats but may differ in a detail not shown here. Identical values can stand only once. Like-named read-outs stand apart in the source and are kept apart here.

Assays:
[1] = molecular target: ClpC1 NTD protein (M. tuberculosis) (Mycobacterium tuberculosis, UniProt P9WPC9); test: biochemical; format: binding
ClpC1 NTD protein (M. tuberculosis), sequence (P9WPC9 1-156, looked up, natural form): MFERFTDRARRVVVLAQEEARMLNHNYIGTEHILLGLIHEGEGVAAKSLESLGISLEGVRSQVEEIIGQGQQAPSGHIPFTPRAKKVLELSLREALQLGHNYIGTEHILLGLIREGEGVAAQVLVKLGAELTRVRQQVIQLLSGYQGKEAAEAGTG

[2] = Microsomal stability, human; format: in vitro ADME; conditions: for Microsomal Stability Human: clearance in microsomes
How it was run: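 Metabolic depletion in liver microsomes (0.5 mg/ml, 1 mM NADPH, 37 °C) starting from 1 µmol/l test compound, sampled at multiple times with acetonitrile quench. LC-MS/MS quantitation; half-life converted to %Qh.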

[3] = tested on: M. tuberculosis H37Rv (ATCC 27294); test: microbe, parasite or virus in culture; format: cell-based
Msm 607 = test: microbe, parasite or virus in culture; format: cell-based
Enterococcus faecium = test: MIC ESKAPES panel, Enterococcus faecium; format: cell-based
Experimental: (§1) Minimum inhibitory concentration (MIC) against ESKAPES panel of Gram positive and Gram negative pathogens (Enterococcus faecium, Staphylococcus aureus, Klebsiella pneumoniae, Acinetobacter baumannii, Pseudomonas aeruginosa, Enterobacter cloacae and Salmonella typhimurium [ESKAPES panel]) were determined at the FNDR by the standard broth dilution method [CLSI, M100]. […] Mueller Hinton broth (MHB) medium was used to grow ESKAPES panel strains. The individual cultures were added as 200 μL (inoculum of 3–7 × 10^5 cfu/ml) to the respective assay plates in each well to all columns, except the media control (200 μL of medium). […] The assay plates were incubated at 37 °C, and the results were noted on the 2nd day as turbidometric readout. The clear wells indicated inhibition of growth, while the turbid wells indicated uninhibited growth.

Salmonella typhimurium = test: MIC ESKAPES panel, Salmonella typhimurium; format: cell-based
Experimental: as §1

Mycobacterium abscessus = test: microbe, parasite or virus in culture; format: cell-based
[4] = SPR, read-out: ClpC1-NTD KD Mean ± SD
[5] = Mycobacterium tuberculosis, M. tuberculosis H37Rv 27294, single well replicates, read-out: MIC
[6] = Mycobacterium tuberculosis, M. tuberculosis H37Rv strain, read-out: MIC Mtb H37Rv Mean ± SD
[7] = Mycobacterium tuberculosis, Mtb H37Rv (Supplementary Table 2), read-out: MIC Mtb
[8] = Mycobacterium tuberculosis, Mtb H37Rv, mean ± SD, n = 3 well replicates, read-out: MIC
[9] = Mycobacterium tuberculosis, Set 1, read-out: MIC (Mtb H37Rv) Set 1
[10] = Mycobacterium tuberculosis, Set 2, read-out: MIC (Mtb H37Rv) Set 2
[11] = Mycobacterium tuberculosis, Set 3, done at a different day than Set 1 and Set 2, read-out: MIC (Mtb H37Rv) Set 3
[12] = Mycobacterium tuberculosis, individual example (Supplementary Table 11), read-out: MIC Mtb H37Rv
[13] = Mycobacterium tuberculosis, mean of 3 experiments +/- SD, unit taken from the sets above in the same table, read-out: MIC data (Mtb H37Rv) (+/- SD)
[14] = Mycolicibacterium smegmatis, 607, read-out: MIC Msm 607
[15] = Mycolicibacterium smegmatis, 607, read-out: MIC Msm #607, individual example (Supplementary Table 11)
[16] = Mycolicibacterium smegmatis, ATCC607, Set-3, done at a different day than Set 1 and Set 2, read-out: MIC (Msm ATCC607) Set-3
[17] = Mycolicibacterium smegmatis, ATCC607, mean of 3 experiments ± SD, read-out: MIC including standard deviations (Msm ATCC607)
[18] = Enterococcus faecium, Gram positive, n = 3 well replicates
[19] = Enterococcus faecium, Gram-Positive Bacteria, replicates 1-3
[20] = Salmonella enterica, TYPHIMURIUM, Gram negative, n = 3 well replicates
[21] = Salmonella enterica, TYPHIMURIUM, Gram-Negative Bacteria, replicates 1-3
[22] = Experiment 2, three replicate columns
[23] = Experiment 2, three replicate columns, read-out: MIC (µM) Mycobacterium abscessus
[24] = Mycobacteroides abscessus, Experiment 1, read-out: MIC Mycobacterium abscessus
[25] = Mycobacteroides abscessus, Experiment 2, three replicate columns, read-out: MIC (µM) Mycobacterium abscessus
[26] = Mycobacteroides abscessus, Experiment 2, three replicate columns, read-out: MIC (µg/ml) Mycobacterium abscessus
[27] = Mycobacteroides abscessus, mean ± SD, read-out: MIC Mycobacterium abscessus

Structure (SMILES)	Kd [1, 4] [nM]	Microsomal Stability Human QH [2]	Microsomal Stability Human [2] [%Qh]	MIC [3, 5] [µM]	MIC [3, 6] [µM]	MIC [3, 7] [µM]	MIC [3, 8] [µM]	MIC [3, 9]	MIC [3, 10]	MIC [3, 11]	MIC [3, 12]	MIC [3, 13]	MIC (Msm 607; [14]) [µM]	MIC (Msm 607; [15])	MIC (Msm 607; [16])	MIC (Msm 607; [17])	MIC (Enterococcus faecium; [18]) [µM]	MIC (Enterococcus faecium; [19])	MIC (Salmonella typhimurium; [20]) [µM]	MIC (Salmonella typhimurium; [21])	also measured
COC(c1ccccc1)C1NC(=O)C(C)NC(=O)C(CC(C)CO)N(C)C(=O)C(Cc2cn(Cc3cn(CCOCCOCCOCCOCCn4cc(Cn5cc(CC6NC(=O)C(C(C)C)NC(=O)C(CC(C)C)N(C)C(=O)C(C(C)C)NC(=O)C(C(OC)c7ccccc7)NC(=O)C(C)NC(=O)C(CC(C)CO)N(C)C6=O)c6ccccc65)nn4)nn3)c3ccccc23)NC(=O)C(C(C)C)NC(=O)C(CC(C)C)N(C)C(=O)C(C(C)C)NC1=O (centres unmarked) [Compound 8]	0.4 ± 0.1	>88.4 >88.4 >88.4%	> 88	0.098 (≈ 0.213 µg/mL)	0.4 ± 0.4 (≈ 0.868 µg/mL)	0.4 ± 0.4 (≈ 0.868 µg/mL)	0.2 ± 0.1 (≈ 0.434 µg/mL)	0.1 µM and 0.21 µg/mL	0.05 µM and 0.1 µg/mL	0.1 µM and 0.21 µg/mL	0.1 µM and 0.2 µg/mL	0.08 µM and 0.17 µg/mL	1.9 ± 0.9 (≈ 4.12 µg/mL)	1.6 µM and 3.4 µg/mL	1.56 µM and 3.39 µg/mL	2.08 µM and 4.5 µg/mL	> 50	> 109 µg/mL	> 50	> 109 µg/mL	Kd ([1]; SPR, individual measurements (source data), listed as 8 (UdSBI-0545), read-out: KD ClpC1-NTD): 0.325 nM and 0.439 nM and 0.567 nM and 0.381 nM; MIC ([3]; individual measurements (source data), listed as 8 (UdSBI-0545), read-out: Mtb MIC): 0.780 µM (2×) and 0.097 µM (2×); MIC (Msm 607; Mycolicibacterium smegmatis, ATCC607, Set-1, read-out: MIC (Msm ATCC607) Set-1): 3.12 µM and 6.78 µg/mL; MIC (Msm 607; Mycolicibacterium smegmatis, ATCC607, Set-2, read-out: MIC (Msm ATCC607) Set-2): 1.56 µM and 3.39 µg/mL; MIC (Enterococcus faecium; Gram-Positive Bacteria, replicates 1-3, listed as 8 (UdSBI-0545)): >50 µM; MIC (Salmonella typhimurium; Gram-Negative Bacteria, replicates 1-3, listed as 8 (UdSBI-0545)): >50 µM; MIC (µg/ml) Mycobacterium abscessus (Mycobacterium abscessus; [22]): >108.53 µg/mL; MIC (Mycobacterium abscessus; [23]): >50 µM; MIC (Mycobacterium abscessus; [24]): > 50 µM and > 109 µg/mL; MIC (Mycobacterium abscessus; [25]): > 50 µM; MIC (Mycobacterium abscessus; [26]): > 109 µg/mL; MIC (Mycobacterium abscessus; [27]): > 50 µM
COc1c(N2C[C@@H]3CCCN[C@@H]3C2)c(F)cc2c(=O)c(C(=O)O)cn(C3CC3)c12 [Moxifloxacin, reference compound]				0.16 (≈ 0.0642 µg/mL)			0.2 (≈ 0.0803 µg/mL)	0.07 µM and 0.03 µg/mL	0.15 µM and 0.06 µg/mL	0.07 µM and 0.03 µg/mL	0.1 µM and 0.03 µg/mL	0.1 µM and 0.04 µg/mL		0.1 µM and 0.1 µg/mL	0.15 µM and 0.06 µg/mL	0.015 µM and 0.06 µg/mL	79.7	79.7 µM and 32 µg/mL	0.6	0.62 µM and 0.25 µg/mL	MIC ([3]; M. tuberculosis H37Rv 27294, single well replicates, read-out: MIC): 0.16 µM (≈ 0.0642 µg/mL); MIC (Msm 607; Mycolicibacterium smegmatis, ATCC607, read-out: MIC (Msm ATCC607) Set-1): 0.15 µM and 0.06 µg/mL; MIC (Msm 607; Mycolicibacterium smegmatis, ATCC607, read-out: MIC (Msm ATCC607) Set-2): 0.15 µM and 0.06 µg/mL; MIC (µg/ml) Mycobacterium abscessus (Mycobacterium abscessus; [22]): 1 µg/mL (≈ 2.49 µM); MIC (Mycobacterium abscessus; [23]): 2.49 µM; MIC (Mycobacterium abscessus; [24]): 2.49 µM and 1 µg/mL; MIC (Mycobacterium abscessus; [25]): 2.49 µM; MIC (Mycobacterium abscessus; [26]): 1 µg/mL; MIC (Mycobacterium abscessus; [27]): 2.5 µM
CO[C@H](c1ccccc1)[C@@H]1NC(=O)[C@H](C)NC(=O)[C@H](C[C@@H](C)CO)N(C)C(=O)[C@H](Cc2cn(Cc3cn(CCOCCn4cc(Cn5cc(C[C@@H]6NC(=O)[C@H](C(C)C)NC(=O)[C@H](CC(C)C)N(C)C(=O)[C@H](C(C)C)NC(=O)[C@H]([C@H](OC)c7ccccc7)NC(=O)[C@H](C)NC(=O)[C@H](C[C@@H](C)CO)N(C)C6=O)c6ccccc65)nn4)nn3)c3ccccc23)NC(=O)[C@H](C(C)C)NC(=O)[C@H](CC(C)C)N(C)C(=O)[C@H](C(C)C)NC1=O [Compound 6]	0.9 ± 0.4	69.600%	70		0.4 ± 0.3 (≈ 0.815 µg/mL)	0.4 ± 0.3 (≈ 0.815 µg/mL)							2.3 ± 0.9 (≈ 4.69 µg/mL)								koff ([1]; SPR dissociation rate constant, read-out: koff ClpC1-NTD Mean ± SD): 0.001 s⁻¹; Kd ([1]; SPR, individual measurements (source data), read-out: KD ClpC1-NTD): 1.36 nM and 1.13 nM and 0.535 nM and 0.649 nM; koff ClpC1-NTD ([1]; SPR, single independent measurements): 0.001 s⁻¹; MIC ([3]; individual measurements (source data), read-out: Mtb MIC): 0.390 µM and 0.780 µM and 0.097 µM and 0.195 µM
